Assay results: US20230255927A1 (ELANCO TIERGESUNDHEIT AG, priority 2022, published 2023)
Marks after values point to notes of the source that are not given here.

Test system: lactating dairy cattle
Assay: Combined analysis of Wisconsin and New York Studies
Assay type: in vivo
Design: DMI / NEL: unit not given here
Settings: for Milk protein percentage: all treatments
Protocol: The instant example provides the combined analysis of data from the two studies (Wisconsin Study and New York Study). The two studies were combined statistically to explore effects on milk production efficiency and other variables associated with efficiency. By effectively doubling pen numbers an increase in power of the analysis was provided. Analysis of these combined datasets was performed in various ways, with the inclusion of either weekly milk yield averages or sample day milk yields to calculate milk component yields, component corrected yields, and feed efficiency. Further, the combined dataset was analyzed using data collected from all experimental weeks as well as the exclusion of data from the first three weeks of experimental treatment feeding. This was done to exclude any shifts in response variables while the rumen environment was adapting to the treatment provided. Materials & Methods: All data from both experimental locations were combined and statistically analyzed as a longitudinal experiment design through SAS version 9.4 (SAS Institute Inc., Cary, N.C.). Experimental response variables, excluding body condition score (BCS), were analyzed using PROC MIXED and […] statements to compare treatment means using the following model: γijklm=μ+[…] Where γijklm=an individual observation of the response variable analyzed, Ti=the i^th dietary treatment, Wj=the j^th experimental week, TWij=the interaction of the i^th treatment with the j^th experimental week, Lk=the k^th experimental location, Pl(i*k)=the 1th pen within the i^th treatment and k^th experimental location, WPjl(i*k)=the interaction of the j^th experimental week with the 1th pen within the i^th treatment and k^th experimental location, Cm(l*i*k)=the m^th cow within the 1th pen, the i^th treatment and k^th experimental location, BXmlik=the covariate observation obtained after three weeks of feeding a common diet to all treatment groups, and ∈ijklmn=the random error of the m^th cow within the 1th pen, the i^th treatment and the k^th location. […] Data were analyzed with pen as the experimental unit and cow as the observational unit. Dietary treatment and experimental week were considered fixed effects, whereas location, pen and cow were considered random effects. An auto-regressive covariance structure [AR(1)] was used to analyze repeated measurements (week of experimental period) with cow nested in pen within treatment as the subject. For pen level observations (DMI, production efficiency and NEL measurements), the main effect of cattle was dropped from the statistical model above. Further, pen was used as the subject of the auto-regressive repeated analysis. Degrees of freedom were adjusted using the Kenward-Roger option and multiple treatment […] comparisons were adjusted by the Tukey method. Non-parametric analysis of BCS measurements, via PROC NPAR1WAY, was performed to evaluate differences in dietary treatments at both the initiation of the experiment and during the final week of the experiments. Statistical significance was reported as P≤0.05 and tendencies as 0.05<P≤0.10. […] This analysis, deemed the 'post-acclimation' analysis, removed the first three experimental weeks of data from the experimental dataset, leaving only the fourth to ninth weeks for statistical interpretation. The statistical model was identical to the previously described approach and all data, except for body weight and NEL (due to missing data), were reanalyzed for interpretation.

[1] = 14.5 g/ton, sample day, weeks 4 through 9
[2] = 14.5 g/ton, weekly averaged, entire experiment
[3] = 14.5 g/ton, weekly averaged, weeks 4 through 9
[4] = 18 g/ton, experimental weeks 4 through 9
[5] = 18 g/ton, sample day, entire experiment
[6] = 18 g/ton, sample day, weeks 4 through 9
[7] = 18 g/ton, weekly averaged, entire experiment
[8] = 18 g/ton, weekly averaged, weeks 4 through 9

CC[C@@]1([C@@H]2O[C@@H]([C@H]3O[C@@](O)(CO)[C@H](C)C[C@@H]3C)C[C@@H]2C)CC[C@H]([C@]2(C)CC[C@]3(C[C@H](O)[C@@H](C)[C@@H]([C@@H](C)[C@@H](OC)[C@H](C)C(=O)O)O3)O2)O1 [monensin]
Fat yield [1]: 4.06^b lb
Lactose yield [1]: 4.27 lb
Milk:Feed [1]: 1.57^y
Protein yield [1]: 3.02 lb
SCM [1]: 95.2^b lb
SCM:Feed [1]: 1.62^by
NEL (14.5 g/ton, weekly averaged milk yield, entire experiment): 1.54
ECM [2]: 102.4 lb
ECM:Feed [2]: 1.74^b
FCM [2]: 96.9 lb
FCM:Feed [2]: 1.65^b
Fat yield [2]: 4.03 lb
Lactose yield [2]: 4.26 lb
Milk Yield [2]: 91.0 lb
Milk:Feed [2]: 1.57
Protein yield [2]: 2.98 lb
SCM [2]: 94.5^y lb
SCM:Feed [2]: 1.61^b
ECM [3]: 101.7^y lb
ECM:Feed [3]: 1.72^b
FCM [3]: 96.1^y lb
FCM:Feed [3]: 1.63^b
Fat yield [3]: 4.00^b lb
Lactose yield [3]: 4.19 lb
Milk Yield [3]: 89.8 lb
Milk:Feed [3]: 1.54
Protein yield [3]: 2.97 lb
SCM [3]: 93.7^b lb
SCM:Feed [3]: 1.58^b
Sample day milk yield difference from the control treatment (18 g/ton treatment, post-acclimation data): 1.5 pounds
DMI (18 g/ton, entire experiment): 59.7
MUN (18 g/ton, entire experiment): 10.4^ab mg/dL
Milk Fat, % (18 g/ton, entire experiment): 4.42%
Milk Fatty Acid: De novo (18 g/ton, entire experiment): 1.06^ab g/100 g
Milk Fatty Acid: Mixed (18 g/ton, entire experiment): 1.77 g/100 g
Milk Fatty Acid: Performed (18 g/ton, entire experiment): 1.30 g/100 g
Milk Fatty Acid: Total FA (18 g/ton, entire experiment): 4.13 g/100 g
Milk Lactose, % (18 g/ton, entire experiment): 4.66%
Milk Protein, % (18 g/ton, entire experiment): 3.29%
DMI [4]: 60.2
MUN [4]: 10.4^abx mg/dL
Milk Fat, % [4]: 4.43%
Milk Fatty Acid: De novo [4]: 1.07^ab g/100 g
Milk Fatty Acid: Mixed [4]: 1.78^ab g/100 g
Milk Fatty Acid: Performed [4]: 1.32 g/100 g
Milk Fatty Acid: Total FA [4]: 4.16 g/100 g
Milk Lactose, % [4]: 4.66%
Milk Protein, % [4]: 3.32%
NEL (18 g/ton, sample day milk yield, entire experiment): 2.39
Day of Sample Milk Yield [5]: 91.6 lb
ECM [5]: 102.2^ab lb
ECM:Feed [5]: 1.71^a
FCM [5]: 96.7^ab lb
FCM:Feed [5]: 1.61^a
Fat yield [5]: 3.99^xy lb
Lactose yield [5]: 4.27 lb
Milk:Feed [5]: 1.55^x
Protein yield [5]: 2.98 lb
SCM [5]: 94.1^xy lb
SCM:Feed [5]: .157^a
Day of Sample Milk Yield [6]: 90.6 lb
ECM [6]: 101.4^ab lb
ECM:Feed [6]: 1.67^a
FCM [6]: 95.8^ab lb
FCM:Feed [6]: 1.58^ab
Fat yield [6]: 3.96^ab lb
Lactose yield [6]: 4.22 lb
Milk:Feed [6]: 1.51^x
Protein yield [6]: 2.97 lb
SCM [6]: 93.4^ab lb
SCM:Feed [6]: 1.54^a
NEL (18 g/ton, weekly averaged milk yield, entire experiment): 2.38
ECM [7]: 100.9 lb
ECM:Feed [7]: 1.69^ax
FCM [7]: 95.5 lb
FCM:Feed [7]: 1.60^a
Fat yield [7]: 3.95 lb
Lactose yield [7]: 4.22 lb
Milk Yield [7]: 90.4 lb
Milk:Feed [7]: 1.53
Protein yield [7]: 2.95 lb
SCM [7]: 93.1^x lb
SCM:Feed [7]: 1.56^a
ECM [8]: 100.2^xy lb
ECM:Feed [8]: 1.66^a
FCM [8]: 94.6^xy lb
FCM:Feed [8]: 1.56^a
Fat yield [8]: 3.91^ab lb
Lactose yield [8]: 4.16 lb
Milk Yield [8]: 89.4 lb
Milk:Feed [8]: 1.50
Protein yield [8]: 2.94 lb
SCM [8]: 92.3^ab lb
SCM:Feed [8]: 1.53^a
Milk protein percentage (entire study): 3.29%
Milk protein percentage (post-acclimation period): 3.32%
